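1) Cells in 96-well plates. 2) Compound, 48 h, 5 concentrations. 3) Linear interpolation between surrounding doses. 4) Unreached endpoint = highest concentration. GI50 marks 50% less growth. Definition used: TGI = concentration required for complete inhibition of growth.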
Columns and labels:
Experiment in all cases: NCI tumour cell line growth inhibition, 48 h
A498 renal = tested on: A498 renal
A549 NSCLC = tested on: A549 NSCLC
ACHN renal = tested on: ACHN renal
BT-549 breast = tested on: BT-549 breast
CAKI-1 renal = tested on: CAKI-1 renal
CCRF-CEM leukemia = tested on: CCRF-CEM leukemia
COLO 205 colon = tested on: COLO 205 colon
DU-145 prostate = tested on: DU-145 prostate
EKVX NSCLC = tested on: EKVX NSCLC
HCC-2998 colon = tested on: HCC-2998 colon
HCT-15 colon = tested on: HCT-15 colon
HL-60(TB) leukemia = tested on: HL-60(TB) leukemia
HOP-92 NSCLC = tested on: HOP-92 NSCLC
HT29 colon = tested on: HT29 colon
IGROV1 ovarian = tested on: IGROV1 ovarian
KM12 colon = tested on: KM12 colon
LOX IMVI melanoma = tested on: LOX IMVI melanoma
M14 melanoma = tested on: M14 melanoma
MALME-3M melanoma = tested on: MALME-3M melanoma
MCF7 breast = tested on: MCF7 breast
MDA-MB-231 breast = tested on: MDA-MB-231 breast
MDA-MB-435 = tested on: MDA-MB-435
MOLT-4 leukemia = tested on: MOLT-4 leukemia
NCI-H226 lung = tested on: NCI-H226 lung
NCI-H23 lung = tested on: NCI-H23 lung
NCI-H460 lung = tested on: NCI-H460 lung
NCI-H522 lung = tested on: NCI-H522 lung
OVCAR-3 ovarian = tested on: OVCAR-3 ovarian
OVCAR-4 ovarian = tested on: OVCAR-4 ovarian
OVCAR-5 ovarian = tested on: OVCAR-5 ovarian
PC-3 prostate = tested on: PC-3 prostate
RXF 393 renal = tested on: RXF 393 renal
SF-268 CNS = tested on: SF-268 CNS
SF-295 CNS = tested on: SF-295 CNS
SF-539 CNS = tested on: SF-539 CNS
SK-MEL-2 melanoma = tested on: SK-MEL-2 melanoma
SK-MEL-28 melanoma = tested on: SK-MEL-28 melanoma
SK-MEL-5 melanoma = tested on: SK-MEL-5 melanoma
SK-OV-3 ovarian = tested on: SK-OV-3 ovarian
SN12C renal = tested on: SN12C renal
SNB-19 CNS = tested on: SNB-19 CNS
SNB-75 CNS = tested on: SNB-75 CNS
SR leukemia = tested on: SR leukemia
SW-620 colon = tested on: SW-620 colon
T-47D breast = tested on: T-47D breast
TK-10 renal = tested on: TK-10 renal
UACC-257 melanoma = tested on: UACC-257 melanoma
UACC-62 melanoma = tested on: UACC-62 melanoma
UO-31 renal = tested on: UO-31 renal
786-0 renal = tested on: 786-0 renal
HCT-116 colon = tested on: HCT-116 colon
HOP-62 NSCLC = tested on: HOP-62 NSCLC
K-562 leukemia = tested on: K-562 leukemia
NCI/ADR-RES ovarian = tested on: NCI/ADR-RES ovarian
OVCAR-8 ovarian = tested on: OVCAR-8 ovarian

SMILES: COc1cc(C2CC(c3cccc(Nc4ccncc4)c3)=NN2c2ccccc2)cc(OC)c1OC (stereo not drawn)
- GI50 (A498 renal): 1.63 µM
- TGI (A498 renal): 7.14 µM
- GI50 (A549 NSCLC): 1.73 µM
- TGI (A549 NSCLC): 3.53 µM
- GI50 (ACHN renal): 1.7 µM
- TGI (ACHN renal): 3.11 µM
- GI50 (BT-549 breast): 1.8 µM
- TGI (BT-549 breast): 3.56 µM
- GI50 (CAKI-1 renal): 1.55 µM
- TGI (CAKI-1 renal): 3.01 µM
- GI50 (CCRF-CEM leukemia): 2.93 µM
- TGI (CCRF-CEM leukemia): 8.53 µM
- GI50 (COLO 205 colon): 1.8 µM
- TGI (COLO 205 colon): 4.25 µM
- GI50 (DU-145 prostate): 1.79 µM
- TGI (DU-145 prostate): 3.4 µM
- GI50 (EKVX NSCLC): 1.8 µM
- TGI (EKVX NSCLC): 4.16 µM
- GI50 (HCC-2998 colon): 1.8 µM
- TGI (HCC-2998 colon): 3.3 µM
- GI50 (HCT-15 colon): 1.91 µM
- TGI (HCT-15 colon): 3.75 µM
- GI50 (HL-60(TB) leukemia): 1.72 µM
- TGI (HL-60(TB) leukemia): 3.65 µM
- GI50 (HOP-92 NSCLC): 1.41 µM
- TGI (HOP-92 NSCLC): 2.94 µM
- GI50 (HT29 colon): 1.93 µM
- TGI (HT29 colon): 4.53 µM
- GI50 (IGROV1 ovarian): 1.77 µM
- TGI (IGROV1 ovarian): 3.61 µM
- GI50 (KM12 colon): 1.72 µM
- TGI (KM12 colon): 3.46 µM
- GI50 (LOX IMVI melanoma): 1.76 µM
- TGI (LOX IMVI melanoma): 3.15 µM
- GI50 (M14 melanoma): 1.91 µM
- TGI (M14 melanoma): 4.12 µM
- GI50 (MALME-3M melanoma): 1.61 µM
- TGI (MALME-3M melanoma): 3.03 µM
- GI50 (MCF7 breast): 1.84 µM
- TGI (MCF7 breast): 4.04 µM
- GI50 (MDA-MB-231 breast): 1.52 µM
- TGI (MDA-MB-231 breast): 2.89 µM
- GI50 (MDA-MB-435): 1.61 µM
- TGI (MDA-MB-435): 3.12 µM
- GI50 (MOLT-4 leukemia): 1.86 µM
- TGI (MOLT-4 leukemia): 4.7 µM
- GI50 (NCI-H226 lung): 2.11 µM
- TGI (NCI-H226 lung): 5.27 µM
- GI50 (NCI-H23 lung): 1.94 µM
- TGI (NCI-H23 lung): 3.87 µM
- GI50 (NCI-H460 lung): 1.77 µM
- TGI (NCI-H460 lung): 3.27 µM
- GI50 (NCI-H522 lung): 1.75 µM
- TGI (NCI-H522 lung): 3.62 µM
- GI50 (OVCAR-3 ovarian): 1.66 µM
- TGI (OVCAR-3 ovarian): 3.14 µM
- GI50 (OVCAR-4 ovarian): 1.71 µM
- TGI (OVCAR-4 ovarian): 3.73 µM
- GI50 (OVCAR-5 ovarian): 2.17 µM
- TGI (OVCAR-5 ovarian): 5.23 µM
- GI50 (PC-3 prostate): 1.79 µM
- TGI (PC-3 prostate): 4.23 µM
- GI50 (RXF 393 renal): 1.56 µM
- TGI (RXF 393 renal): 2.95 µM
- GI50 (SF-268 CNS): 1.7 µM
- TGI (SF-268 CNS): 3.45 µM
- GI50 (SF-295 CNS): 1.81 µM
- TGI (SF-295 CNS): 3.28 µM
- GI50 (SF-539 CNS): 1.71 µM
- TGI (SF-539 CNS): 3.11 µM
- GI50 (SK-MEL-2 melanoma): 1.96 µM
- TGI (SK-MEL-2 melanoma): 3.8 µM
- GI50 (SK-MEL-28 melanoma): 1.77 µM
- TGI (SK-MEL-28 melanoma): 3.3 µM
- GI50 (SK-MEL-5 melanoma): 1.78 µM
- TGI (SK-MEL-5 melanoma): 3.17 µM
- GI50 (SK-OV-3 ovarian): 1.78 µM
- TGI (SK-OV-3 ovarian): 3.5 µM
- GI50 (SN12C renal): 1.6 µM
- TGI (SN12C renal): 3.05 µM
- GI50 (SNB-19 CNS): 1.64 µM
- TGI (SNB-19 CNS): 3.29 µM
- GI50 (SNB-75 CNS): 1.42 µM
- TGI (SNB-75 CNS): 3.74 µM
- GI50 (SR leukemia): 1.56 µM
- TGI (SR leukemia): 3.58 µM
- GI50 (SW-620 colon): 1.66 µM
- TGI (SW-620 colon): 3.16 µM
- GI50 (T-47D breast): 2.12 µM
- TGI (T-47D breast): 6.61 µM
- GI50 (TK-10 renal): 1.79 µM
- TGI (TK-10 renal): 3.42 µM
- GI50 (UACC-257 melanoma): 1.95 µM
- TGI (UACC-257 melanoma): 3.82 µM
- GI50 (UACC-62 melanoma): 1.73 µM
- TGI (UACC-62 melanoma): 3.18 µM
- GI50 (UO-31 renal): 1.42 µM
- TGI (UO-31 renal): 2.81 µM

SMILES: CC12CCC([C@H](Nc3cc(C(F)(F)F)cc(C(F)(F)F)c3)C1=O)C2(C)C (stereo partly drawn)
- TGI (786-0 renal): > 100 µM
- TGI (A549 NSCLC): > 100 µM
- TGI (ACHN renal): > 100 µM
- TGI (BT-549 breast): > 100 µM
- TGI (CAKI-1 renal): > 100 µM
- TGI (COLO 205 colon): > 100 µM
- TGI (DU-145 prostate): > 100 µM
- TGI (EKVX NSCLC): > 100 µM
- TGI (HCC-2998 colon): > 100 µM
- TGI (HCT-116 colon): > 100 µM
- TGI (HCT-15 colon): > 100 µM
- TGI (HOP-62 NSCLC): > 100 µM
- TGI (HT29 colon): > 100 µM
- TGI (IGROV1 ovarian): > 100 µM
- TGI (K-562 leukemia): > 100 µM
- TGI (KM12 colon): > 100 µM
- TGI (LOX IMVI melanoma): > 100 µM
- TGI (M14 melanoma): > 100 µM
- TGI (MALME-3M melanoma): > 100 µM
- TGI (MDA-MB-231 breast): > 100 µM
- TGI (MDA-MB-435): > 100 µM
- TGI (MOLT-4 leukemia): > 100 µM
- TGI (NCI-H226 lung): > 100 µM
- TGI (NCI-H23 lung): > 100 µM
- TGI (NCI/ADR-RES ovarian): > 100 µM
- TGI (OVCAR-3 ovarian): > 100 µM
- TGI (OVCAR-4 ovarian): > 100 µM
- TGI (OVCAR-5 ovarian): > 100 µM
- TGI (OVCAR-8 ovarian): > 100 µM
- TGI (PC-3 prostate): > 100 µM
- TGI (RXF 393 renal): 28 µM
- TGI (SF-268 CNS): > 100 µM
- TGI (SF-295 CNS): > 100 µM
- TGI (SF-539 CNS): > 100 µM
- TGI (SK-MEL-2 melanoma): > 100 µM
- TGI (SK-MEL-28 melanoma): > 100 µM
- TGI (SK-MEL-5 melanoma): > 100 µM
- TGI (SK-OV-3 ovarian): > 100 µM
- TGI (SNB-19 CNS): > 100 µM
- TGI (SR leukemia): > 100 µM
- TGI (SW-620 colon): > 100 µM
- TGI (T-47D breast): > 100 µM
- TGI (TK-10 renal): > 100 µM
- TGI (UACC-257 melanoma): > 100 µM
- TGI (UO-31 renal): > 100 µM

Source: PubChem BioAssay (NCI)
